Test results reported in US20240336638A1, “IMIDAZOLE COMPOUND, AND INTERMEDIATE AND APPLICATION THEREOF” (priority 2021, published 2024).
Like-named read-outs stand apart in the source and are kept apart here.

How the values were obtained:
[1] = Pharmacokinetics in SD rats after single IV and PO administration, plasma; format: in vivo; conditions: for Vd / AUC(0-inf) / AUC(0-t) / C0 / Cmax / Tmax / half-life / MRT last / MRT inf / bioavailability: Sprague-Dawley (SD), rat plasma; for Vd: rat, plasma, iv, 1 mg/kg; for MRT last: read-out: MRT(0−t); for MRT inf: read-out: MRT(0−∞); for bioavailability: PO 6 mg/kg vs IV 1 mg/kg
Description: The experimental method of administration by gavage injection in rats: SD rats weighing 180 to 220 g were fasted for 12 hours prior to the experiment, with free access to water. After administration, food and water were withheld for 4 hours. After this 4-hour period, the rats were allowed free access to water, and food was provided after 8 hours. The drugs were administered at a set dose. N=3, blood samples were taken before administration, and 5 minutes, 0.25 hours, 0.5 hours, 0.75 hours, 1 hour, 2 hours, 4 hours, 8 hours, and 24 hours after administration, respectively, and placed into sodium heparin anticoagulant tubes. The tubes were centrifuged for 1 hour at 4° C. and at 8000 rpm for 5 minutes, and the plasma was then separated and stored in centrifuge tubes at −70° C. for analysis. The experimental method of intravenous administration to rats: SD rats weighing 180 to 220 g were fasted for 12 hours prior to the experiment, with free access to water. After administration, food and water were withheld for 4 hours. After this 4-hour period, the rats were allowed free access to water, and food was provided after 8 hours. The drugs were administered at a set dose. N=3, blood samples were taken before administration, and 5 minutes, 0.25 hours, 0.5 hours, 0.75 hours, 1 hour, 2 hours, 4 hours, 8 hours, and 24 hours after administration, respectively, and placed into sodium heparin anticoagulant tubes. The tubes were centrifuged for 1 hour at 4° C. and at 8000 rpm for 5 minutes, and the plasma was then separated and stored in centrifuge tubes at −70° C. for analysis. The plasma concentration-time data were processed using the Phoenix® WinNonlin® 8.0 program to calculate pharmacokinetic parameters. Among them, Cmax and Tmax are measured values, the elimination rate constant k of the tail section of the C-t curve is obtained from the linear regression of LnC-t, and the value of AUC0-4 is calculated by the trapezoidal area method, and the area under the curve from 0 to ∞ time is AUC=AUC0-4+Ct/k. [table]

[2] = test system: AA-induced platelet aggregation; experiment: Inhibitory effect on AA-induced platelet aggregation in rats in vitro (washed platelets); format: cell-based, rat; conditions: 1*10^−4 M
Description: Several experimental groups were established, including a blank control group, an AA (arachidonic acid) model control group, and various test compounds. Each test compound had three concentration groups: 10^−3 M, 10^−4 M, and 10^−5 M. The data from the blank and model control group were shared among the different drug concentration groups as a control.
Male SD rats were anesthetized with 3% chloral hydrate (300 mg/kg) through intraperitoneal injection. After being fixed in a supine position, the skin of the neck was cut about 3 cm, bluntly separated with a hemostat, and the trachea was exposed after the common carotid artery was separated. The distal end of the common carotid artery was ligated with a fine thread, and the proximal end was clamped with an arterial clamp for vascular intubation. After the intubation was fixed, the artery clamp was opened, and the blood was placed into a blood collection tube containing 3.8% trisodium citrate so that the blood was mixed well with the 3.8% trisodium citrate in a volume ratio of 9:1.
The prepared anticoagulant blood was mixed well and centrifuged for 10 minutes at 500 rpm, then the upper layer of plasma was aspirated to obtain platelet-rich plasma (PRP), and the PRP was centrifuged again for 5 minutes at 3,000 rpm. The supernatant was discarded, and the platelet precipitate was obtained, which was washed once with Ca^2+-free HEPES-Tyrode's buffer, then centrifuged at 3,000 rpm for 5 minutes. The supernatant was discarded, and the platelets were resuspended with Ca^2+-free HEPES-Tyrode's buffer to obtain the washed platelets.
First, 300 μL of Ca^2+-containing HEPES-Tyrode's solution was taken into the test cup, put into the test wells, and calibrated by pressing the “PPP” key. Subsequently, 240 μL of the washed platelets were added to the test cup, then added with 30 μL of different concentrations of drug solution, incubated for 10 minutes at 37° C. in a preheated bath, and then put into the test wells. 3 μL of 100× CaCl2 solution (final concentration of 0.2 g/L) and 30 μL of inducer (final concentration of AA of 800 μM) were added to the test wells, and then the “Start” key was pressed immediately. The maximum aggregation rate was recorded every 60 s. The measurement was repeated three times for each concentration for 10 minutes, and the aggregation curve was plotted.
The platelet aggregation inhibition rate was calculated with the following formula:
Inhibition rate (%)=(maximum aggregation rate in the model control group−maximum aggregation rate in the administration group)/maximum aggregation rate in the model control group×100%
All data were expressed as mean±standard deviation (mean±SD). SPSS 22.0 software was used for statistical analysis of the data. Intergroup data were analyzed using one-way ANOVA, with P<0.05 considered as statistically significant and P<0.01 considered as highly significant.

| Compound | Vd ([1]; IV 1 mg/kg, read-out: Vss) [L/kg] | Vd ([1]; IV 1 mg/kg, read-out: Vz) [L/kg] | AUC(0-inf) ([1]; IV 1 mg/kg) [µg·h/mL] | AUC(0-t) ([1]; IV 1 mg/kg) [µg·h/mL] | C0 ([1]; IV 1 mg/kg) [ng/mL] | Cmax ([1]; IV 1 mg/kg) [ng/mL] | Tmax ([1]; IV 1 mg/kg) [h] | half-life ([1]; IV 1 mg/kg) [h] | MRT last ([1]; IV 1 mg/kg) [h] | MRT inf ([1]; IV 1 mg/kg) [h] | AUC(0-inf) ([1]; PO 6 mg/kg) [µg·h/mL] | AUC(0-t) ([1]; PO 6 mg/kg) [µg·h/mL] | Cmax ([1]; PO 6 mg/kg) [ng/mL] | Tmax ([1]; PO 6 mg/kg) [h] | half-life ([1]; PO 6 mg/kg) [h] | bioavailability [1] [%] | MRT last ([1]; PO 6 mg/kg) [h] | MRT inf ([1]; PO 6 mg/kg) [h] | significant inhibition of AA-induced platelet aggregation [2] | T1/2 and AUC(0-∞) in the whole body blood circulation system as compared to that of Ozagrel ([1]; intravenously at 1 mg/kg) | also measured |
| --- | --- | --- | --- | --- | --- | --- | --- | --- | --- | --- | --- | --- | --- | --- | --- | --- | --- | --- | --- | --- | --- |
| O=C(O)/C=C/c1ccc(Cn2ccnc2)cc1 [Ozagrel, reference compound] | 0.25 | 0.74 | 0.51 | 0.51 | 3670 | 1840 | 0.083 | 0.26 | 0.12 | 0.13 | 2.68 | 2.68 | 3780 | 0.25 | 0.73 | 87.5 | 0.62 | 0.63 | – | – | – |
| O=C(O)[C@@H]1C[C@H]1c1ccc(Cn2cnc(Cl)c2)c(Cl)c1 [Compound 11, (1R,2R)-2-(3-Chloro-4-((4-chloro-1H-imidazol-1-yl)methyl)phenyl)cyclopropane-1-carboxylic acid] | 0.22 | 0.22 | 228 | 86.4 | 5150 | 5140 | 0.083 | 34.8 | 10.5 | 50.1 | 1700 | 587 | 32400 | 4 | 37 | 113 | 11 | 54.4 | can significantly inhibit | significantly increased | T1/2 and AUC(0-∞) in the whole body blood circulation system as compared to that of Ozagrel ([1]; orally at 6 mg/kg): significantly increased |
| O=C(O)[C@@H]1C[C@H]1c1ccc(Cn2ccnc2)c(F)c1 [Compound 15, (1R,2R)-2-(4-((1H-Imidazol-1-yl)methyl)-3-fluorophenyl)cyclopropane-1-carboxylic acid] | 0.34 | 0.38 | 3.44 | 3.43 | 3710 | 3160 | 0.083 | 0.91 | 1.14 | 1.16 | 80.7 | 78.4 | 18600 | 1 | 1.51 | 381 | 2.57 | 2.79 | can significantly inhibit | significantly increased | T1/2 and AUC(0-∞) in the whole body blood circulation system as compared to that of Ozagrel ([1]; orally at 6 mg/kg): significantly increased |
| O=C(O)[C@@H]1C[C@H]1c1ccc(Cn2ccnc2)cc1 [Compound 19, (1R,2R)-2-(4-((1H-Imidazol-1-yl)methyl)phenyl)cyclopropane-1-carboxylic acid] | 0.16 | 0.2 | 3.25 | 3.25 | 6870 | 5490 | 0.083 | 0.44 | 0.5 | 0.51 | 36.6 | 36.6 | 27300 | 0.25 | 0.72 | 188 | 1.19 | 1.2 | can significantly inhibit | – | – |
| O=C(O)[C@@H]1C[C@H]1c1ccc(Cn2cnc(F)c2)c(Cl)c1 [Compound 18, (1R,2R)-2-(3-Chloro-4-((4-fluoro-1H-imidazol-1-yl)methyl)phenyl)cyclopropane-1-carboxylic acid] | 0.2 | 0.21 | 70.7 | 55.9 | 6590 | 6340 | 0.083 | 10.4 | 7.73 | 14.3 | 757 | 576 | 41400 | 1 | 11.6 | 172 | 8.39 | 16.1 | can significantly inhibit | significantly increased | T1/2 and AUC(0-∞) in the whole body blood circulation system as compared to that of Ozagrel ([1]; orally at 6 mg/kg): significantly increased |
| O=C(O)[C@@H]1C[C@H]1c1ccc(Cn2cnc(F)c2)cc1F [Compound 17, (1R,2R)-2-(2-Fluoro-4-((4-fluoro-1H-imidazol-1-yl)methyl)phenyl)cyclopropane-1-carboxylic acid] | 0.22 | 0.27 | 17.6 | 17.5 | 7320 | 6840 | 0.083 | 3.24 | 3.8 | 3.91 | 179 | 178 | 27200 | 2 | 2.96 | 169 | 4.16 | 4.25 | can significantly inhibit | significantly increased | T1/2 and AUC(0-∞) in the whole body blood circulation system as compared to that of Ozagrel ([1]; orally at 6 mg/kg): significantly increased |
